Experimental data from US20170145002A1, “DEUTERATED ISOXAZOLE DERIVATIVES AND THEIR USE AS METABOTROPIC GLUTAMATE RECEPTOR POTENTIATORS” (AstraZeneca AB, priority 2015, published 2017).

How the values were obtained:
[1] = Metabolic stability and intrinsic clearance in dog hepatocytes; assay type: in vitro ADME; details: cryopreserved dog hepatocytes 1.0×10^6 viable cells/mL, 37° C., up to 120 minutes; read-out: Dog Hepatocytes Median t1/2
Procedure: Stock solutions (10 mM) of the test compounds and control compounds were prepared in appropriate solvent (DMSO). The incubation medium (L-15 Medium) was placed in a 37° C. water bath, and warming was allowed for at least 15 minutes prior to use. 80 μL of acetonitrile was added to each well of the 96-well deep well plate (quenching plate). In a new 96-well plate, the 10 mM test compound solutions and the control compound solution were diluted to 100 μM by combining 198 μL of acetonitrile and 2 μL of 10 mM stock. A vial of cryopreserved dog hepatocytes was removed from storage, while ensuring that vials remain at cryogenic temperatures until thawing process ensued. As quickly as possible, the cells were thawed by placing the vial in a 37° C. water bath and gently shaking the vials. Vials remained in water bath until all ice crystals had dissolved and were no longer visible. After thawing was complete, vial was sprayed with 70% ethanol, and transferred to a biosafety cabinet. The vial was opened and the contents poured into the 50 mL conical tube containing thawing medium. The 50 mL conical tube was placed into a centrifuge and spun at 100 g for 10 minutes. Upon completion of spin, the thawing medium was aspirated and hepatocytes resuspended in enough incubation medium to yield ˜1.5×10^6 cells/mL. Using Cellometer® Vision, cells were counted and the viable cell density was determined. Cells with poor viability (<80% viability) were not acceptable for use. Cells were diluted with incubation medium to a working cell density of 1.0×10^6 viable cells/mL. 247.5 μL of hepatocytes were transferred into each well of a 96-well cell culture plate. The plate was placed on Eppendorf Thermomixer Comfort plate shaker to allow the hepatocytes to warm for 10 minutes. 2.5 μL of 100 μM test compound solution or control compound solution were added into an incubation well containing cells, and mixed to achieve a homogenous suspension at 0.5 minutes, which when achieved, defined the 0.5 minute time point. At the 0.5 minute time point, 20 μL of incubated mixture was transferred to wells in a “Quenching” plate followed by vortexing. The plate was incubated at 37 ° C. at 900 rpm on an Eppendorf Thermomixer Comfort plate shaker. At 5, 15, 30, 45, 60, 80, 100 minutes and 120 minutes, the incubation system was mixed and samples of 20 μL of incubated mixture were serially transferred at each time point to wells in a separate “Quenching” plate followed by vortexing. The quenching plates were centrifuged for 20 minutes at 4,000 rpm. […]
All calculations were carried out using Microsoft Excel. Peak areas were determined from extracted ion chromatograms. […]
The in vitro intrinsic clearance (in vitro Clint, in μL/min/10^6 cells) is determined from the slope value using the following equation: […]

[2] = Metabolic stability and intrinsic clearance in rat hepatocytes; assay type: in vitro ADME; details: cryopreserved rat hepatocytes 1.0×10^6 viable cells/mL, 37° C., up to 120 minutes; read-out: Rat Hepatocytes Median t1/2
Procedure: Stock solutions (10 mM) of Compounds A, B, C, D and of control compounds were prepared in the appropriate solvent (DMSO). The L-15 Medium was placed in a 37° C. water bath, and allowed to warm for at least 15 minutes prior to use. Acetonitrile (80 μL) was added to each well of the 96-well plate (quenching plate).
In a new 96-well plate, the solutions of the above compounds and of the control compounds were diluted to 100 μM by combining 198 μL of acetonitrile and 2 μL of each stock solutions. A vial of cryopreserved rat hepatocytes was removed from storage, while ensuring that the vial remain at cryogenic temperatures until thawing process ensued. As quickly as possible, the cells were thawed by placing the vial in a 37° C. water bath and gently shaking the vial. The vial remained in the water bath until all ice crystals had dissolved and were no longer visible. After thawing was completed, the vial was sprayed with 70% ethanol, and transferred into a biosafety cabinet. The vial was opened and the content poured into a 50 mL conical tube containing L-15 Medium. The vial was washed twice. The 50 mL conical tube was placed in a centrifuge and spun at 50 g for 3 minutes (room temperature). The L-15 medium was aspirated. A small volume of buffer (˜200 μL) was added and the pellet was re-suspended. The tube was filled with buffer to a volume of 50 mL and centrifugation was repeated. Upon completion of spin, the L-15 Medium was aspirated and the hepatocytes re-suspended in enough incubation medium to yield ˜1.5×10^6 cells/mL. Using Cellometer® Vision, the cells were counted and the viable cell density was determined. Cells with poor viability (<80% viability) were not acceptable for use. Cells were diluted with incubation medium to a working cell density of 1.0×10^6 viable cells/mL. Hepatocytes (247.5 μL) were transferred into each well of a 96-well cell culture plate. The plate was placed on an Eppendorf Thermomixer Comfort plate shaker to allow the hepatocytes to warm for 10 minutes.
Solutions (2.5 μL of 100 μM) of Compounds A, B, C, D and of the control compounds were added into an incubation well containing cells and mixed to achieve a homogenous suspension at 0.5 minutes, which when achieved, defined the 0.5 minute time point. At the 0.5 minute time point, the incubated mixture (20 μL) was transferred to wells in a “Quenching plate,” followed by vortexing. […]
All calculations were carried out using Microsoft Excel. Peak areas were determined from extracted ion chromatograms. The in vitro half-life (t1/2) of the parent compound was determined by regression analysis of the Ln percent parent disappearance vs. time curve.
The in vitro intrinsic clearance (in vitro Clint, in μL/min/10^6 cells) was determined from the slope value using the following equation: […]

SMILES	half-life at 1 μM [1]	half-life at 1 μM [2]
[2H]C1([2H])OC([2H])([2H])C([2H])([2H])N(C(=O)c2cc(-c3cc(Cl)c4c(c3)CN([C@@H](C)C3CC3)C4=O)on2)C1([2H])[2H] [Compound A, (S)-7-chloro-2-(1-cyclopropylethyl)-5-(3-(morpholine-4-carbonyl-2,2,3,3,5,5,6,6-d8)isoxazol-5-yl)isoindolin-1-one]	40.1 min	100 min
[2H]C1([2H])CN(C(=O)c2cc(-c3cc(Cl)c4c(c3)CN([C@@H](C)C3CC3)C4=O)on2)CC([2H])([2H])O1 [Compound B, (S)-7-chloro-2-(1-cyclopropylethyl)-5-(3-(morpholine-4-carbonyl-2,2,6,6-d4)isoxazol-5-yl)isoindolin-1-one]	40.1 min	36.8 min
[2H]C1([2H])COCC([2H])([2H])N1C(=O)c1cc(-c2cc(Cl)c3c(c2)CN([C@@H](C)C2CC2)C3=O)on1 [Compound C, (S)-7-chloro-2-(1-cyclopropylethyl)-5-(3-(morpholine-4-carbonyl-3,3,5,5-d4)isoxazol-5-yl)isoindolin-1-one]	33.3 min	29.1 min
C[C@@H](C1CC1)N1Cc2cc(-c3cc(C(=O)N4CCOCC4)no3)cc(Cl)c2C1=O [Compound D, (S)-7-chloro-2-(1-cyclopropylethyl)-5-(3-(morpholine-4-carbonyl)isoxazol-5-yl)isoindolin-1-one, reference compound]	29.9 min	37.3 min
